Measurements from US20240199647A1, “ANTI-VIRAL COMPOUNDS” (Aligos Therapeutics, Inc., priority 2022, published 2024).
Where two headings read alike, the source gives them in different places.

Tests used:
in vitro = conditions: human
[1] = test system: human beta-coronavirus OC43; experiment: OC43 Coronavirus Assay in HeLa cells (antiviral, cytopathic effect, cell-titer-glo); assay type: cell-based; conditions: Betacoronavirus 1, OC43, HeLa
[2] = Cytotoxicity in HeLa cells without addition of OC43 virus (in parallel); conditions: human, HeLa cells, without OC43 virus
[3] = test system: SARS-CoV-2 B.1.1.7 lineage; experiment: microbe, parasite or virus in culture; assay type: cell-based; conditions: Severe acute respiratory syndrome coronavirus 2, Table C, SARS-CoV-2 B.1.1.7 in A549-dual_ACE2_TMPRSS2 cells, read-out: A549-dual_ACE2_TMPRSS2 (EC50)
SARS-Cov-2 3CLpro = SARS-Cov-2 3CLpro (Severe acute respiratory syndrome coronavirus 2, UniProt P0DTD1); experiment: biochemical; conditions: Table A, class symbols, read-out: SARS-Cov-2 (IC50)
[4] = Table B, OC43 coronavirus in HeLa cells, class symbols, read-out: EC50

SMILES	CC50 (in vitro)	EC50 [1]	CC50 at 6 days [2]	EC50 ([3]; class symbols)	IC50 (SARS-Cov-2 3CLpro)	EC50 [1, 4]	EC50 ([3]; cells given as a bound)
CN(C(=O)[C@@H]1CCN(C(=O)C(F)(F)F)C1)[C@@H](CC1CC1)C(=O)N1C[C@@]2(C[C@H]1C#N)Oc1cc(F)cc(F)c1NC2=O [Compound 128]	> 1000 nM	> 10000 nM	> 10 µM	100 to 1000 nM	200 to 2000 nM		
CN(C(=O)c1cc2c(F)cc(F)c(F)c2[nH]1)[C@@H](CC1CC1)C(=O)N1C[C@@]2(C[C@H]1C#N)Oc1cccnc1NC2=O [Compound 96]	> 1000 nM		> 10 µM	100 to 1000 nM	< 20 nM	1000 to 10000 nM	
C[C@H](NC(=O)C(F)(F)F)C(=O)N(C)[C@@H](CC1CC1)C(=O)N1C[C@@]2(C[C@H]1C#N)Oc1ccccc1NC2=O [Compound 160]	> 1000 nM		> 10 µM	< 100 nM	< 20 nM	< 100 nM	
Cc1c(-c2ccccc2)nn2c1NC(=O)[C@]21C[C@@H](C#N)N(C(=O)[C@H](CC(C)C)N(C)C(=O)[C@H](C)NC(=O)C(F)(F)F)C1 [Compound 130]	> 1000 nM		> 10 µM	100 to 1000 nM	20 to 200 nM	100 to 1000 nM	
CN(C(=O)C(O)C(C)(C)C)[C@@H](CC1CC1)C(=O)N1C[C@@]2(C[C@H]1C#N)Oc1cc(F)cc(F)c1NC2=O (stereo partly drawn) [Compound 138]	> 1000 nM		> 10 µM	100 to 1000 nM	< 20 nM	100 to 1000 nM	
CN1C(=O)[C@]2(C[C@@H](C#N)N(C(=O)[C@H](CC3CC3)N(C)C(=O)[C@H](CC3CC3)NC(=O)C(F)(F)F)C2)Oc2cc(F)cc(F)c21 [Compound 93]	> 1000 nM		> 10 µM	< 100 nM	< 20 nM	< 100 nM	
COc1ccc(Cl)c2[nH]c(C(=O)N(C)[C@@H](CC3CC3)C(=O)N3C[C@@]4(C[C@H]3C#N)Oc3cc(F)cc(F)c3NC4=O)cc12 [Compound 135]	> 1000 nM		> 10 µM	100 to 1000 nM	< 20 nM	< 100 nM	
CC(C)C[C@@H](C(=O)N1C[C@@]2(C[C@H]1C#N)N=C(C(C)(C)C)NC2=O)N(C)C(=O)[C@H](C)NC(=O)C(F)(F)F [Compound 47]	> 1000 nM		> 10 µM	100 to 1000 nM	20 to 200 nM	1000 to 10000 nM	
CN(C(=O)C(O)c1ccc(F)cc1)[C@@H](CC1CC1)C(=O)N1C[C@@]2(C[C@H]1C#N)Oc1cc(F)cc(F)c1NC2=O (stereo partly drawn) [Compound 136]	> 1000 nM		> 10 µM	100 to 1000 nM	< 20 nM	100 to 1000 nM	
C[C@H](NC(=O)OC1CC1)C(=O)N(C)[C@@H](CC1CC1)C(=O)N1C[C@@]2(C[C@H]1C#N)Oc1cccnc1NC2=O [Compound 219]	> 1000 nM		> 10 µM	100 to 1000 nM	< 20 nM	< 100 nM	
CN(C(=O)[C@H](CC1CC1)NC(=O)C1(F)CC1)[C@@H](CC1CC1)C(=O)N1C[C@@]2(C[C@H]1C#N)Oc1ncccc1NC2=O [Compound 185]	> 1000 nM		> 10 µM	100 to 1000 nM	< 20 nM	< 100 nM	
CN(C(=O)[C@H](CC1CC1)NC(=O)C1(F)CC1)[C@@H](CC1CC1)C(=O)N1C[C@@]2(CC1C#N)Oc1ccccc1CNC2=O (stereo partly drawn) [Compound 176]	> 1000 nM		> 10 µM	< 100 nM	< 20 nM	< 100 nM	
CN(C(=O)[C@H](CC1CC1)NC(=O)C(F)(F)F)[C@@H](CC1CC1)C(=O)N1C[C@@]2(C[C@H]1C#N)CC1(CC1)NC2=O [Compound 60]	> 1000 nM		> 10 µM	< 100 nM	< 20 nM	< 100 nM	
CN(C(=O)[C@H](CC1CC1)NC(=O)C(F)(F)F)C(CC1CC1)C(=O)N1C[C@]2(Cc3ccccc3NC2=O)C[C@H]1C#N (stereo in doubt) [Example 33, (S)—N—((S)-1-((3S,5S)-5-cyano-2′-oxo-1′,4′-dihydro-2′H-spiro[pyrrolidine-3,3′-quinolin]-1-yl)-3-cyclopropyl-1-oxopropan-2-yl)-3-cyclopropyl-N-methyl-2-(2,2,2-trifluoroacetamido)propanamide]	> 1000 nM		> 10 µM	< 100 nM	< 20 nM	100 to 1000 nM	
C[C@H](NC(=O)C(F)(F)F)C(=O)N(C)[C@@H](CC1CC1)C(=O)N1C[C@@]2(C[C@H]1C#N)Oc1c(cccc1C1CC1)NC2=O [Compound 99]	> 1000 nM		> 10 µM	< 100 nM	< 20 nM	100 to 1000 nM	
CC(C)C[C@@H](C(=O)N1C[C@]2(Cc3ccccc3NC2=O)C[C@H]1C#N)N(C)C(=O)[C@H](C)NC(=O)C(F)(F)F [Example 32, (S)—N—((S)-1-((3S,5S)-5-cyano-2′-oxo-1′,4′-dihydro-2′H-spiro[pyrrolidine-3,3′-quinolin]-1-yl)-4-methyl-1-oxopentan-2-yl)-N-methyl-2-(2,2,2-trifluoroacetamido)propanamide]	> 1000 nM		> 10 µM	100 to 1000 nM	< 20 nM	1000 to 10000 nM	
C[C@H](NC(=O)C(F)(F)F)C(=O)N(C)[C@@H](CC(C)(C)C)C(=O)N1C[C@@]2(C[C@H]1C#N)Oc1cccnc1NC2=O [Compound 166]	> 1000 nM		> 10 µM	100 to 1000 nM	< 20 nM	< 100 nM	
CN(C(=O)[C@@H]1CC[C@@H](c2ccccc2)N1)[C@@H](CC1CC1)C(=O)N1C[C@@]2(C[C@H]1C#N)Oc1cc(F)cc(F)c1NC2=O [Compound 111, (2S,5S)—N—((S)-1-((2R,5'S)-5′-cyano-5,7-difluoro-3-oxo-3,4-dihydrospiro[benzo[b][1,4]oxazine-2,3′-pyrrolidin]-1′-yl)-3-cyclopropyl-1-oxopropan-2-yl)-N-methyl-5-phenylpyrrolidine-2-carboxamide]	> 1000 nM		> 10 µM	100 to 1000 nM	< 20 nM	100 to 1000 nM	
CC(C)C[C@@H](C(=O)N1C[C@]2(C[C@H]1C#N)C(=O)Nc1ccnn12)N(C)C(=O)[C@H](C)NC(=O)C(F)(F)F [Example 45, (2S)—N-[(2S)-1-[(3R,5'S)-5′-cyano-2-oxo-1H-spiro[pyrazolo[1,5-a]imidazole-3,3′-pyrrolidin]-1′-yl]-4-methyl-1-oxopentan-2-yl]-N-methyl-2-(2,2,2-trifluoroacetamido)propanamide]	> 1000 nM		> 10 µM		20 to 200 nM	100 to 1000 nM	> 1000 nM
CC(C)OC(=O)N[C@@H](C)C(=O)N(C)[C@@H](CC1CC1)C(=O)N1C[C@@]2(C[C@H]1C#N)Oc1cc(F)cc(F)c1NC2=O [Compound 120, isopropyl ((S)-1-(((S)-1-((2R,5'S)-5′-cyano-5,7-difluoro-3-oxo-3,4-dihydrospiro[benzo[b][1,4]oxazine-2,3′-pyrrolidin]-1′-yl)-3-cyclopropyl-1-oxopropan-2-yl)(methyl)amino)-1-oxopropan-2-yl)carbamate]	> 1000 nM		> 10 µM	100 to 1000 nM	< 20 nM	100 to 1000 nM	
CN(C(=O)[C@H](CC1CC1)NC(=O)C(F)(F)F)[C@@H](CC1CC1)C(=O)N1C[C@@]2(C[C@H]1C#N)Oc1cc(F)ccc1NC2=O [Compound 50]	> 1000 nM		> 10 µM	< 100 nM	< 20 nM	< 100 nM	
